In assay [1] the test system is TNF-α, IL-6 and IL-1B in exudate. The assay can be described thus: Air pouch model, ELISA of exudate. Conditions: 300 μg/mouse into air pouch; FIG. 1. Format: in vivo, C57BL/6 mice. The method, then:
Healthy adult male C57BL/6 mice weighing between 20 and 30 g were supplied by Nanjing Biomedicial Research Institute of Nanjing University (NBRI). Prior to any experiments being conducted, mice were housed under standardized conditions (at a constant temperature of 22±2° C., with alternating 12 hour periods of light and darkness), and were fed on a standard mouse diet with water, for about a week.
General anesthesia was induced using intraperitoneal 3% chloral hydrate (Sinopharm Chemical Reagent Co., Ltd., Shanghai, China; 1 mL/10 g of body weight). The hair of the entire dorsum was shaved and depilated 1 day before sterile air injection.
Air pouches were produced by subcutaneous injection of sterile air (5 mL) into the intrascapular area of the mice. After three days, another injection of air (3 mL) was performed to maintain the pouches. […]
Exudates were collected and volumes were quantified. The exudates were centrifuged at 3000 rpm for 10 minutes at 4° C., and the supernatants were collected and stored at −20° C. for ELISA analysis using standard ELISA test kits from Beijing 4A Biotech Co., Ltd. (Beijing) and an ELISA reader (SH-1000 Hitachi, Japan) for […] (TNF-α), interleukin 1 beta (IL-1B), interleukin 6 (IL-6). […]
(An ELISA detects its analyte on a solid surface through an enzyme-linked reagent.)

Assay [2] concerns allergic skin (redness, itching, swelling). The assay can be described thus: Liquid spray to treat allergic dermatitis. Format: in vivo, human. Here is the method: Compound B (see Example 1 above) was dissolved in Water for Injection (WFI; prepared from a TC-RO-0.25/h-2 Water Treatment System, Yangzhou Tiancheng Water Treatment Devices & Engineering Co., Ltd., Yangzhou, China). The concentration was 0.3 mg/mL.
The enrolled subjects in the study had allergic skin. Prior to treatment, the patients presented symptoms including skin redness, itching and swelling. Subjects were required to use the liquid spray in the morning and the evening after facial cleansing.

Assay [3] relates to bleomycin-induced pulmonary fibrosis. Kind of assay: Idiopathic pulmonary fibrosis (IPF) model. The arrangement: lung coefficient: unit not given here. Format: in vivo, Sprague Dawley rats. The method, then:
Experimental animals and grouping: 40 adult male Sprague Dawley rats, after 7 days of adaptive feeding, were divided into 4 groups: sham-operation group (Sham), IPF model group (no treatment; Model), test group (Compound B) and positive control group (Positive Control).
The test were administered Compound B, at a dose of 130 μg/rat, which was introduced by aerosolized inhalation. Oral administration of pirfenidone (Etuary®, Beijing Continent Pharmaceutical Co., Ltd., Beijing, China) as a 120 mg/kg single-bolus dose served as the positive control.
A pulmonary fibrosis model was established by intratracheal instillation of bleomycin. The rats were anaesthetised and placed on an operating table in the supine position, to expose the trachea. Bleomycin (5 mg/kg) saline solution was injected into the trachea through the gap between the tracheal cartilage rings. The sham-operation group were given an equal volume of normal saline. Shortly after administration, the rats were lifted vertically and were rotated, in order to evenly disperse the drug. Once the rats had recovered, after approximately 5 days, they were administrated the different drugs according to the plan for 28 days, consecutively.
The exhaust volume of the atomizing device was 0.15 mL per minute. The inhalation time for each rat was 1 minute.
At Day 29 following drug administration, rats were anesthetized by i.p. injection of chloral hydrate. After orbital blood collection, the rats were sacrificed. The thoracic cavity was quickly opened and the lung was collected for further analysis. The lung wet weight was measured, and the lung coefficient was calculated (lung wet weight/rat weight×1000). The tissue was stored in refrigerator at −80° C. for further use.
A piece of lung tissue was accurately weighed, and 9 times the weight of saline was added. Then, the tissue was homogenized and centrifuged for 10 minutes at 3000 rpm. The homogenate was used to detect the expression of the transformation growth factor (TGF-β1), tumor necrosis factor-α (TNF-α) and alpha-smooth muscle actin (α-SMA). Standard ELISA methods were used for the detection. The contents of malonaldehyde (MDA) and the activity of superoxide dismutase (SOD) in lung tissue were also detected.

The test system of assay [4] is ammonia induced cough. Kind of assay: Antitussive experiment, ammonia induced cough method. Format: in vivo, ICR mice. Here is the method:
36 ICR mice were randomly divided into 3 groups according to their body weight, labelled a CMC-Na (Negative) control group, a dextromethorphan hydrobromide (Positive) control group and a Compound B (B) group. Each group contained 12 mice, with 6 males and 6 females in each.
Compound B was administered via atomization inhalation using a YLS-8A Multifunctional cough and sputum inducing device (Jinan Yiyan Science and Technology Co., Ltd.) (0.15 ml/min) for 1 minute, once daily for 5 days. And the positive control drug was administered once daily by intragastric administration at 10 mg/kg for 5 days.
The mice were placed in an inverted beaker 1, 2, and 4 hours after the last drug administration. 1 mL of aqueous ammonia (25.0 to 28.0%) was placed on top of a boiling water bath and was evaporated into the beaker.
The time for mice to receive ammonia exposure was determined by a method characterized by analyzing data immediately after one test or a batch of tests. The results of the previous analysis determined how to conduct the next test or batch of tests.
The difference between the logarithmic value of two adjacent time periods was 0.1.
The number of coughs within 1 minute was detected using a stethoscope. If a mouse coughed three or more times over one minute, this was labelled as called ‘cough’, and less than three times in one minute was labelled ‘cough free’.
The EDT50 was defined as the ammonia stimulating time at which half mice developed a “cough”, calculated by the equation: […]
(c equals the sum of r and x, r is the number of animals in each stimulating time group, x is the logarithm of stimulation time and n was the number of animals in each group). lg is a base 10 logarithmic value.
In Table 15, R is the EDT50 in treatment group divided by the EDT50 in the Control group expressed as a percentage.

[5] abbreviates: lung tissue homogenate, Day 29, Compound B 130 μg/rat aerosolized inhalation, pirfenidone gavage, 28 days.

Where a SMILES comes first, the peptide text is derived from it. [ ]: non-standard residue; d: D form. Hyp = O=C(O)[CH]1C[CH](O)CN1

As to `CC(N)C(=O)NC(CCCCN)C(=O)N1CCCC1C(=O)NC(CO)C(=O)NC(Cc1ccc(O)cc1)C(=O)N1CC(O)CC1C(=O)N1CC(O)CC1C(=O)NC(C(=O)NC(Cc1ccc(O)cc1)C(=O)NC(CCCCN)C(=O)O)C(C)O` (stereo not drawn) [Compound B, Ala-Lys-Pro-Ser-Tyr-Hyp-Hyp-Thr-Tyr-Lys] (H-AKPSY[Hyp][Hyp]TYK-OH; configuration not given here), in assay [1], the “ELISA test results of the exudate for TNF-α, IL-6 and IL-1B” value is given as “very strong anti-inflammatory effects”. In addition, in assay [2] (liquid spray 0.3 mg/mL in Water for Injection, first use, subjects with allergic skin), the “time to relief of itching” value was at most 8 min. The “capillary congestion, facial redness and swelling” value in assay [2] (liquid spray 0.3 mg/mL, morning and evening, after 1 day of use) is “no longer red and swollen after 1 day of use”. In addition, the “inhibition of production of TNF-α, α-SMA and TGF-β1 in lung tissue” value in assay [3] (compared with pirfenidone) is given as “almost equivalent to that of the known IPF drug, pirfenidone”. The TGF-β1 in assay [3] (setting [5]) came out at 0.40 ± 0.02 ng/mg protein. Further, the TNF-α in assay [3] (setting [5]) was found to be 187.91 ± 12.20 pg/mg protein. In addition, the α-SMA in assay [3] (setting [5]) stood at 10.85 ± 1.42 pg/mg protein. Moreover, the MDA in assay [3] (lung tissue, Day 29) stood at 0.17 ± 0.04 U/mg protein. In addition, the SOD in assay [3] (lung tissue, Day 29) is 48.64 ± 1.85 U/mg protein. This compound also registered a lung coefficient in assay [3] (lung wet weight/rat weight×1000, Day 29) of 5.14 ± 0.37. Moreover, the R was 131.7% in assay [4] (1 hour after admin., EDT50 in treatment group divided by EDT50 in Control group); 131.8% in assay [4] (2 hours after admin., EDT50 treatment/Control); 100 [???] % in assay [4] (4 hours after admin., EDT50 treatment/Control). Also, the EDT50 came out at 28.2 s in assay [4] (1 hour after last administration, B 195 μg/mouse atomization inhalation, Positive 10 mg/kg intragastric, once daily 5 days); 28.2 s in assay [4] (2 hours after last administration); 26.9 s in assay [4] (4 hours after last administration). Besides, the “effect on cough relief” value in assay [4] (at 1 and 2 hours) was “positive effect on cough relief”.

These data come from patent US20250041377A1, “PHARMACEUTICAL USE” (ENLITISA (SHANGHAI) PHARMACEUTICAL CO., LTD., priority 2018, published 2025).
